Test results: US20220146526A1, “METHOD FOR EVALUATING SAMPLE, ANALYSIS METHOD, METHOD FOR DETECTING DEGRADED SAMPLE, MARKER FOR DETECTING DEGRADED BLOOD PLASMA SAMPLE, AND MARKER FOR DETECTING DEGRADED SERUM SAMPLE” (SHIMADZU CORPORATION, priority 2019, published 2022)

Tests used:
Assay type in all cases: physicochemical, human
[1] = LC/MS of blood plasma sample: time from blood collection to centrifugation (Table D); conditions: blood collection to centrifugation; for Rate of increase or decrease: detection intensity relative to 1 at 15 minutes; for Increase or decrease: detection intensity
How it was run: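 Detection intensities are expressed relative to samples centrifuged 15 min after collection (=1), measured by electrospray LC/MS in MRM mode (Discovery HS F5-3, 40 °C, formic acid water/acetonitrile gradient at 0.25 mL/min). EDTA blood from a healthy donor was held at 4 °C, centrifuged at 4 °C, 3000 rpm, 15 min, and plasma frozen.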

[2] = LC/MS of blood plasma sample: time from blood collection to cooling of blood (Table E); set-up: key to Rate of increase or decrease / Rate of increase or decrease (first value, increase): detection intensity relative to ≤1 min to cooling = 1; conditions: for Rate of increase or decrease: detection intensity relative to 1 at 1 minute or less, blood collection to cooling 5 minutes; for Increase or decrease: detection intensity, blood collection to cooling 5 minutes or more vs 1 minute or less; for Rate of increase or decrease (second value, decrease) / Rate of increase or decrease (first value, increase): different from individual to individual, relative to 1 at 1 minute or less, collection to cooling 5 minutes; for Rate of increase or decrease (second value, decrease): individuals with decrease; for Rate of increase or decrease (first value, increase): individuals with increase
Protocol: At room temperature, 5 mL of blood from a healthy subject was taken into a blood-collecting vessel containing EDTA, and the blood-collecting vessel was inverted for mixing, then cooled, and allowed to stand at 4° C. Here, in order to investigate how the detection intensity of molecules contained in the sample was affected in a case where the time to cooling was set to 5 minutes or more as compared to that in a case where the time to cooling was set to 1 minute or less, preparations were performed under both the former condition and the latter condition. After standing, the blood sample was subjected to centrifugation under a condition of 4° C., 3000 rpm, and 15 minutes. […] After centrifugation, the blood-collecting vessel was left to stand at room temperature for 30 minutes, and the blood plasma was isolated during this 30 minutes. The obtained blood plasma sample was frozen and stored. Here, in order to investigate how the detection intensity of molecules contained in the sample was affected in cases where freezing and thawing was performed 4 times, 6 times, and 10 times after freezing as compared to that in a case where freezing and thawing was performed 2 times after freezing, freezing and thawing was performed under the respective conditions of 2, 4, 6, and 10 times.
(§1) Frozen blood plasma samples and serum samples were subjected to GC/MS or LC/MS. In GC/MS, the blood plasma samples and serum samples were subjected to methoxymation and trimethylsilylation and then introduced to GC-MS.
(§2) Analysis column: Discovery HS F5-3 (inner diameter of 2.1 mm, length of 150 mm, film thickness of 3 μm) (Sigma-Aldrich)
(§3) Column temperature: 40° C.
(§4) (A) 0.1% formic acid (dissolved in water)
(§5) (B) 0.1% formic acid (dissolved in acetonitrile)
(§6) Flow velocity: 0.25 mL/min
(§7) Ionization method: electrospray
(§8) Temperature: • Desolvation Line (DL) temperature: 250° C. • Heat block temperature: 400° C. • Interface temperature: 300° C.
(§9) Gas flow rate: • Nebulizer gas flow rate: 3.0 L/min • Drying gas flow rate: 10.0 L/min • Heating gas flow rate: 10.0 L/min
(§10) Mode: multiple reaction monitoring (MRM)
The rate of increase or decrease in Table E is the value of detection intensity relative to 1 that is the detection intensity in a case where the time from blood collection to cooling is set to 1 minute or less.

[3] = LC/MS of blood plasma sample: number of times of freezing and thawing (Table F); conditions: for Rate of increase or decrease: detection intensity relative to 1 at 2 times; for Increase or decrease: detection intensity; for Rate of increase or decrease (second value, decrease) / Rate of increase or decrease (first value, increase): different from individual to individual, relative to 1 at 2 times, freezing and thawing 6 times; for Rate of increase or decrease (second value, decrease): individuals with decrease; for Rate of increase or decrease (first value, increase): individuals with increase
How it was run: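 Values are detection intensities normalised to 1 for plasma thawed twice, compared against 4, 6 and 10 freeze-thaw cycles. Measured by electrospray LC/MS in MRM mode, formic acid water/acetonitrile mobile phase, column at 40° C. Plasma came from EDTA blood, cooled to 4° C and spun at 3000 rpm for 15 min.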

[4] = LC/MS of serum sample: time from centrifugation to isolation (Table K); set-up: key to Rate of increase or decrease: detection intensity relative to the 30-minute value set as 1; conditions: for Rate of increase or decrease: detection intensity relative to 1 at 30 minutes; for Increase or decrease / Time when compound is affected: serum sample, LC/MS; for Increase or decrease: detection intensity vs 30 minutes from centrifugation to isolation; for Time when compound is affected: time from centrifugation to isolation, detection intensity changed by 30% or more vs 30 minutes
Protocol: After standing, the blood sample was subjected to centrifugation under a condition of room temperature, 3500 rpm, and 5 minutes. […] After centrifugation, the blood-collecting vessel was left to stand at room temperature, and the serum was isolated during this time. Here, in order to investigate how the detection intensity of molecules contained in the sample was affected in cases where the time during which the blood-collecting vessel was left at room temperature was set to 1 hour and 6 hours as compared to that in a case where the time was set to 30 minutes, preparations were performed under the respective conditions of 30 minutes, 1 hour, and 6 hours. The obtained serum sample was frozen and stored. Here, in order to investigate how the detection intensity of molecules contained in the sample was affected in cases where freezing and thawing was performed 4 times, 6 times, and 10 times after freezing as compared to that in a case where freezing and thawing was performed 2 times after freezing, freezing and thawing was performed under the respective conditions of 2, 4, 6, and 10 times.
as §1, §2, §3, §4, §5, §6, §7, §8, §9, §10
The rate of increase or decrease in Table K is the value of detection intensity relative to 1 that is the detection intensity in a case where the time from centrifugation to isolation is set to 30 minutes.

[5] = LC/MS of serum sample: number of times of freezing and thawing (Table M); set-up: key to Rate of increase or decrease: detection intensity relative to 1 at 2 freeze-thaw cycles; conditions: for Rate of increase or decrease: detection intensity relative to 1 at 2 times; for Number of times when compound is affected / Increase or decrease: serum sample, LC/MS; for Number of times when compound is affected: detection intensity changed by 30% or more vs 2 times of freezing and thawing; for Increase or decrease: detection intensity vs 2 times of freezing and thawing
How it was run: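 Values are detection intensities relative to serum thawed twice, versus 4, 6 or 10 freeze-thaw cycles. Serum came from blood spun at room temperature, 3500 rpm for 5 minutes. Analysis: electrospray LC/MS in MRM mode, Discovery HS F5-3 column, 40° C, 0.1% formic acid in water and acetonitrile.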

[6] = LC/MS of serum sample: time from blood collection to centrifugation (Table J); conditions: for Rate of increase or decrease: detection intensity relative to 1 at 15 minutes; for Increase or decrease / Time when compound is affected: serum sample, LC/MS; for Increase or decrease: detection intensity vs 15 minutes from blood collection to centrifugation; for Time when compound is affected: time from blood collection to centrifugation, detection intensity changed by 30% or more vs 15 minutes
How it was run: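 Detection intensities are expressed relative to 1 for samples centrifuged 15 min after blood collection; centrifugation was at room temperature, 3500 rpm, 5 min. Frozen serum was run by electrospray LC-MS in MRM mode, with 0.1% formic acid water/acetonitrile at 0.25 mL/min on a 40 °C F5 column.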

[7] = freezing and thawing 4 times vs 2 times
[8] = after 1 hour from centrifugation to isolation
[9] = 4 times of freezing and thawing
[10] = after 4 hours from blood collection to centrifugation
[11] = after 6 hours from centrifugation to isolation
[12] = 10 times of freezing and thawing
[13] = freezing and thawing 6 times vs 2 times

Rate of increase or decrease [2] | Increase or decrease [2] | Rate of increase or decrease ([3]; freezing and thawing 4 times) | Increase or decrease [3, 7] | Rate of increase or decrease [4, 8] | Increase or decrease [4] | Time when compound is affected [4] | Rate of increase or decrease [5, 9] | Number of times when compound is affected [5] [times] | Increase or decrease [5] | Rate of increase or decrease ([1]; after 4 hours) | Increase or decrease ([1]; after 4 hours vs 15 minutes) | Rate of increase or decrease (second value, decrease) [2] | Rate of increase or decrease (first value, increase) [2] | Rate of increase or decrease [6, 10] | Increase or decrease [6] | Time when compound is affected [6] | Rate of increase or decrease [4, 11] | Rate of increase or decrease [5, 12] | Increase or decrease [3, 13] | SMILES | further results
1.93 | Increase | – | – | – | Increase | After 6 hours | – | 10 | Decrease | – | – | – | – | 2.10 | Increase | After 4 hours | 2.40 | 0.53 | – | N[C@@H](CC(=O)O)C(=O)O [Aspartic acid] | Rate of increase or decrease ([1]; after 6 hours): 1.46; Increase or decrease ([1]; after 6 hours vs 15 minutes): Increase; Rate of increase or decrease ([3]; freezing and thawing 10 times): 1.76; Increase or decrease ([3]; freezing and thawing 10 times vs 2 times): Increase
1.67 | Increase | 1.99 | Increase | – | Decrease | After 6 hours | 1.37 | 4 | Increase | 1.33 | Increase | – | – | – | Increase | After 6 hours | 0.61 | – | – | N[C@@H](CS)C(=O)O [Cysteine] | Rate of increase or decrease ([6]; after 6 hours from blood collection to centrifugation): 1.39
1.41 | Increase | – | – | – | Increase | After 6 hours | – | 10 | Decrease | 2.20 | Increase | – | – | – | Increase | After 12 hours | 2.35 | 0.59 | – | O=C(O)[C@@H]1CCCN1 [Proline] | –

Further lines, the compound ahead of its results:

SMILES | Rate of increase or decrease [2] | Increase or decrease [2] | Rate of increase or decrease ([3]; freezing and thawing 4 times) | Increase or decrease [3, 7] | Rate of increase or decrease [4, 8] | Increase or decrease [4] | Time when compound is affected [4] | Rate of increase or decrease [5, 9] | Number of times when compound is affected [5] [times] | Increase or decrease [5] | Rate of increase or decrease ([1]; after 4 hours) | Increase or decrease ([1]; after 4 hours vs 15 minutes) | Rate of increase or decrease (second value, decrease) [2] | Rate of increase or decrease (first value, increase) [2] | Rate of increase or decrease [6, 10] | Increase or decrease [6] | Time when compound is affected [6] | Rate of increase or decrease [4, 11] | Rate of increase or decrease [5, 12] | Increase or decrease [3, 13] | further results
Nc1ncnc2nc[nH]c12 [Adenine] | 1.31 | Increase | 1.37 | Increase | 0.39 | Decrease | After 1 hour hours | 0.57 | 4 | Decrease | – | – | – | – | – | – | – | – | – | – | Rate of increase or decrease ([1]; after 6 hours): 0.63; Increase or decrease ([1]; after 6 hours vs 15 minutes): Decrease
Nc1ncnc2c1ncn2[C@@H]1O[C@H](COP(=O)(O)O)[C@@H](O)[C@H]1O [Adenosine monophosphate] | – | Different from individual | 1.50 | Increase | 0.13 | Decrease | After 1 hour hours | 0.23 | 4 | Decrease | 1.56 | Increase | 0.62 | 1.43 | – | – | – | – | – | – | –
Nc1ccn([C@@H]2O[C@H](CO)[C@@H](O)[C@H]2O)c(=O)n1 [Cytidine] | – | Different from individual | – | – | 0.70 | Decrease | After 1 hour hours | 1.52 | 4 | Increase | 1.95 | Increase | 0.46 | 2.56 | 0.62 | Decrease | After 4 hours | – | – | Different from individual | Rate of increase or decrease (second value, decrease) [3]: 0.30; Rate of increase or decrease (first value, increase) [3]: 1.54
NC(=O)c1cccnc1 [Nicotinamide] | 1.40 | Increase | – | – | – | – | – | – | 6 | Decrease | 1.44 | Increase | – | – | 2.16 | Increase | After 4 hours | – | – | Increase | Rate of increase or decrease ([5]; 6 times of freezing and thawing): 0.69
NCCc1c[nH]c2ccc(O)cc12 [Serotonin] | – | Different from individual | – | – | 0.52 | Decrease | After 1 hour hours | – | 10 | Decrease | 2.95 | Increase | 0.63 | 1.62 | – | – | – | – | 0.65 | Different from individual | Rate of increase or decrease (second value, decrease) [3]: 0.68; Rate of increase or decrease (first value, increase) [3]: 1.57
